These results are taken from BindingDB's records for patent US20250352549 (Avelos Therapeutics, 2025).

This assay addresses T1, Serine/threonine-protein kinase greatwall (Human, UniProt Q96GX5).
T1 sequence (Q96GX5 whole entry): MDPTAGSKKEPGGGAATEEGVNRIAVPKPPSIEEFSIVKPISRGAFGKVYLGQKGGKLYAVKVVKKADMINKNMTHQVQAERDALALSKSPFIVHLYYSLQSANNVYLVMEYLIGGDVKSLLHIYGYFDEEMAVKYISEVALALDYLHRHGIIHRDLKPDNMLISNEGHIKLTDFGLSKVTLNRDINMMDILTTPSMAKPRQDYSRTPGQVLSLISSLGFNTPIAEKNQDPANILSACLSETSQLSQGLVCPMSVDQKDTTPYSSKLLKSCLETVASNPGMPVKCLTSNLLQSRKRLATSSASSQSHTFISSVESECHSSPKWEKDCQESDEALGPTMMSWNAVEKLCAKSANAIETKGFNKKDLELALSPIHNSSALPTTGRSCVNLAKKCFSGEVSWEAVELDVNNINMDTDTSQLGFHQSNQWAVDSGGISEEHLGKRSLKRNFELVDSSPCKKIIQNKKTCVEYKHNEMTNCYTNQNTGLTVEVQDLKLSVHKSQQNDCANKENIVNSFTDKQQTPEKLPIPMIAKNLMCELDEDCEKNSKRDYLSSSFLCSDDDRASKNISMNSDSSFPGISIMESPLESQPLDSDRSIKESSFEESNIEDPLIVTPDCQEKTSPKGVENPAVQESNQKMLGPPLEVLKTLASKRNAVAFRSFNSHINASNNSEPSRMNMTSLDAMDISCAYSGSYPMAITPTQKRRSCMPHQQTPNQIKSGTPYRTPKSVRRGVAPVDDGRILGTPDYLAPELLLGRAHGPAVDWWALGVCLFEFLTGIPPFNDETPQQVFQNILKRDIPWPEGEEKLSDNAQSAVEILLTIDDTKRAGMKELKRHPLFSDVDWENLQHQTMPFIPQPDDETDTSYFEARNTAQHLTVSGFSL
Briefly: MASTL Activity Assay. How it is done:
Wild-type human active MASTL (154 pM) was incubated in assay buffer (50 mM HEPES, 100 mM NaCl, 0.1 mM EGTA, 10 mM MgCl2, 0.01% Tween-20, 0.5 mM TCEP, pH 7.5) with biotin tagged 40-mer ENSA peptide (10 nM), test compound and ATP (18 μM) for 60 minutes at room temperature. Test compounds were assayed using a 12-point dose range consisting of a 0, DMSO control and 10 sequential doses consisting from 0.0005, 0.002, 0.005, 0.014, 0.04, 0.12, 0.37, 1.11, 3.33 and 10 μM. The DMSO concentration was the same (1%) in all samples. An equal volume of detection buffer (assay buffer+267.5 pM Ab-K, 1.25 nM SA-D2, 20 mM EDTA and 400 mM KF) was added to stop the reaction to make a final volume of 20 μl, RT for 60 mins. Activity was measured using a plate reader (PerkinElmer EnSight) by the FRET signal generated between SA-D2 (streptavidin-D2) and Ab-K (anti-phospho-Serine 67 ENSA antibody (rabbit polyclonal, using standard techniques by a commercial supplier) conjugated to Cryptate). HTRF reagents (CisBio) were prepared as per the manufacturer recommendations. The 40-mer biotin-tagged ENSA peptide (synthesised by Bionics) used was based around Serine 67 on ENSA ([…]).
For orientation: IC50 means the concentration needed to halve the response being measured. Read a low IC50 as inhibition by little substance. As to `Cc1ncc2ccc(-c3cc(NC(Cc4cccc(Cl)c4Cl)C(N)=O)nc(N)n3)cn12` (stereo not given) [US20250352549, Example 148], the IC50 is < 500 nM. Then `Cc1ncc2ccc(-c3cc(NC(c4c[nH]c(C(F)(F)F)n4)C(C)C)nc(N)n3)cn12` (stereo not given) [US20250352549, Example 150], with < 500 nM; and `Cc1ncc2ccc(-c3nc(N)nc(NCc4c[nH]c(C(F)(F)F)n4)n3)cn12` [US20250352549, Example 151], with < 500 nM. On to `Cc1ncc2ccc(-c3nc(N)nc(NC(c4c[nH]c(C(F)(F)F)n4)C4CC4)n3)cn12` (stereo not given) [US20250352549, Example 154], for which the half-inhibitory concentration (IC50) was < 500 nM. Then `CC(C)C(Nc1nc(N)nc(-c2ccc3cn[nH]c3c2)n1)c1c[nH]c(C(F)(F)F)n1` (stereo not given) [US20250352549, Example 156], with < 500 nM; and `CCC(Nc1nc(N)nc(-c2ccc3cn[nH]c3c2)n1)c1c[nH]c(C(F)(F)F)n1` (stereo not given) [US20250352549, Example 157], with < 500 nM. Turning to `Cc1ncc2ccc(-c3nc(N)nc(NC(c4nc(C(F)(F)F)no4)C(C)C)n3)cn12` (stereo not given) [US20250352549, Example 158], the IC50 is > 1000 nM. On to `Cc1ncc2ccc(-c3nc(N)nc(NCc4nc(C(F)(F)F)no4)n3)cn12` [US20250352549, Example 159], for which the half-maximal inhibitory concentration (IC50) result was “in the range around 750 nM”. On to `Cc1ncc2ccc(-c3nc(N)nc(NC(C)(C)c4nc(C(F)(F)F)no4)n3)cn12` [US20250352549, Example 160], for which the 50% inhibitory concentration (IC50) entry was “in the range around 750 nM”. Then `Cc1ncc2ccc(-c3nc(N)nc(N(C)C(c4c[nH]c(C(F)(F)F)n4)C(C)C)n3)cn12` (stereo not given) [US20250352549, Example 161], with “in the range around 750 nM”; and `Cc1ncc2ccc(-c3nc(N)nc(N(C)Cc4cccc(F)c4Cl)n3)cn12` [US20250352549, Example 162], with “in the range around 750 nM”. The result for `Cc1ncc2ccc(-c3nc(N)nc(N(C)Cc4cccc(Cl)c4F)n3)cn12` [US20250352549, Example 163] reads < 500 nM. Then `Cc1ncc2ccc(-c3nc(N)nc(N(C)Cc4c[nH]c(C(F)(F)F)n4)n3)cn12` [US20250352549, Example 164], with < 500 nM; and `Cc1ncc2ccc(-c3nc(N)nc(NC(c4cn(C)c(C(F)(F)F)n4)C(C)C)n3)cn12` (stereo not given) [US20250352549, Example 165], with < 500 nM. Consider `Cc1ncc2ccc(-c3nc(N)nc(NC(c4nnc(C(F)(F)F)o4)C(C)C)n3)cn12` (stereo not given) [US20250352549, Example 166], for which the IC50 is > 1000 nM. Take `CC(C)C(Nc1nc(N)nc(-c2ccc3cn[nH]c3c2)n1)c1ccn(C(F)F)n1` (stereo not given) [US20250352549, Example 167]: the IC50 is < 500 nM.

In the case of `Cc1ncc2ccc(-c3nc(N)nc(NC(c4ccc(C#N)cn4)C(C)C)n3)cn12` (stereo not given) [US20250352549, Example 168], the IC50 was > 1000 nM. Then `Cc1ncc2ccc(-c3nc(N)nc(N(C)C(c4cn(C)c(C(F)(F)F)n4)C(C)C)n3)cn12` (stereo not given) [US20250352549, Example 169], with “in the range around 750 nM”; and `CNc1nc(NC(c2ccn(C(F)F)n2)C(C)C)nc(-c2ccc3cn[nH]c3c2)n1` (stereo not given) [US20250352549, Example 171], with < 500 nM; and `CNc1nc(NC(C)(C)c2ccn(C(F)F)n2)nc(-c2ccc3cnn(C)c3c2)n1` [US20250352549, Example 172], with < 500 nM.

In the case of `Cn1ncc2ccc(-c3nc(N)nc(NC(C)(C)c4c[nH]c(C(F)(F)F)n4)n3)cc21` [US20250352549, Example 174], the IC50 was < 500 nM. The result for `Cc1ncc2ccc(-c3nc(N)nc(NC(C)(C)c4ccn(CCN)n4)n3)cn12` [US20250352549, Example 175] reads < 500 nM; that for `Cc1ncc2ccc(-c3nc(N)nc(NC(c4ccc(CN)cn4)C(C)C)n3)cn12` (stereo not given) [US20250352549, Example 178], < 500 nM. Take `CC(C)CC(Nc1nc(N)nc(-c2ccc3cn[nH]c3c2)n1)c1c[nH]c(C(F)(F)F)n1` (stereo not given) [US20250352549, Example 179]: the IC50 was < 500 nM.

On to `Cc1nc(C)n2cc(-c3nc(N)nc(NC(c4c[nH]c(C(F)(F)F)n4)C(C)C)n3)ccc12` (stereo not given) [US20250352549, Example 181], for which the IC50 is < 500 nM.
